Data on two compounds can be found in patent US6579882B2, “Cell adhesion-inhibiting antiinflammatory compounds” (Abbott Laboratories, priority 1998, dated 2003).

Data set [1] has as its system VCAM-1. Nature of the data set: CAM ELISA: VCAM-1 expression on TNF-stimulated HUVECs. The note with it: Homo sapiens, Endothelial cell, 1 μM compound; primary human umbilical vein endothelial cells; compound 24 hours, then TNF 5 ng/mL 6 hours. It is filed as cell-based. A digest of the protocol: (§1)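 Pooled primary HUVECs (passages 3–7), hydrocortisone-free medium, pretreated 24 h with compound at 37° C, then stimulated with TNF 5 ng/mL for 6 h. Surface VCAM-1, ICAM-1 or E-selectin measured by cell ELISA: specific mouse primary antibody, HRP anti-mouse secondary, OPD development, absorbance at 490 nm.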

Data set [2] deals with E-Selectin. The data set can be described thus: CAM ELISA: E-selectin expression on TNF-stimulated HUVECs. It is filed as cell-based. The note with it: Homo sapiens, Endothelial cell, 1 μM compound; primary human umbilical vein endothelial cells; compound 24 hours, then TNF 5 ng/mL 6 hours. A digest of the protocol: as §1
Data set [3] has as its system ICAM-1. The data set can be described thus: CAM ELISA: ICAM-1 expression on TNF-stimulated HUVECs. The format is cell-based. As to conditions: Homo sapiens, Endothelial cell, 1 μM compound; primary human umbilical vein endothelial cells; compound 24 hours, then TNF 5 ng/mL 6 hours. A digest of the protocol:
as §1

Consider `Nc1csc(-c2cc3c(Oc4ccc(Cl)cc4)cncc3s2)n1` [Example 295, 2-[4-(4-Chlorophenoxy)thieno[2,3-c]pyridin-2-yl]-1,3-thiazol-4-amine], for which the melting point is 168 to 170 °C (dec.). This compound showed an inhibition at 1 µM in data set [1] of 44%. The compound further displayed an inhibition at 1 µM in data set [2] of 59%. The inhibition at 1 µM in data set [3] is 56%.

As to `O=C(NCCO)c1cc2c(Oc3ccc(Cl)cc3)cnc(Cl)c2s1` [Example 313, 7-Chloro-4-(4-chlorophenoxy)-N-(2-hydroxyethyl)thieno[2,3-c]pyridine-2-carboxamide], the melting point lay in the range of 129 to 132 °C. The compound also came in with an inhibition at 1 µM in data set [1] of 39%. The compound also gave an inhibition at 1 µM in data set [2] of 57%. Also, 1 µM produced 68% inhibition in data set [3].
